How the values were obtained:
[1] = Cytotoxicity against Homo sapiens (human) […] cells at 1 uM; assay type: cell-based
THP-1 [2] = assay: Anti-inflammatory activity in Homo sapiens (human) THP1 cells assessed as inhibition of LPS-induced IL6 production at 1 uM incubated for 30 min prior to LPS-challenge measured after 24 hr by ELISA; assay type: functional
THP-1 [3] = assay: Anti-inflammatory activity in Homo sapiens (human) THP1 cells assessed as inhibition of LPS-induced TNFalpha production at 1 uM incubated for 30 min prior to LPS-challenge measured after 24 hr by ELISA; assay type: functional
[4] = Antioxidant activity assessed as reduction of potassium ferricynide at 1 mM after 10 min by spectrophotometric analysis; assay type: functional; design: scale not given: the % may be the effect or the level left
[5] = Antioxidant activity assessed as hydroxyl radical scavenging activity at 1 mM by spectrophotometric analysis; assay type: functional
HCT-116 [6] = assay: Cytotoxicity against Homo sapiens (human) HCT116 cells at 700 nM after 48 hr by propidium iodide-based fluorometric assay; assay type: functional; conditions: HCT-116, 48 h, read-out: GI
ACHN [7] = assay: Cytotoxicity against Homo sapiens (human) ACHN cells at 700 nM after 48 hr by propidium iodide-based fluorometric assay; assay type: functional; conditions: read-out: GI
Calu-1 [8] = assay: Cytotoxicity against Homo sapiens (human) Calu1 cells at 700 nM after 48 hr by propidium iodide-based fluorometric assay; assay type: functional; conditions: Calu-1, 48 h, read-out: GI
[9] = Cytotoxicity against Homo sapiens (human) H460 cells at 700 nM after 48 hr by propidium iodide-based fluorometric assay; assay type: functional; conditions: NCI-H460, 48 h, read-out: GI
PANC-1 [10] = assay: Cytotoxicity against Homo sapiens (human) PANC1 cells at 700 nM after 48 hr by propidium iodide-based fluorometric assay; assay type: functional; conditions: PANC-1, 48 h, read-out: GI
ACHN [11] = assay: Cytotoxicity against Homo sapiens (human) ACHN cells at 500 nM after 48 hr by propidium iodide-based fluorometric assay; assay type: functional; conditions: read-out: GI
HCT-116 [12] = assay: Cytotoxicity against Homo sapiens (human) HCT116 cells at 500 nM after 48 hr by propidium iodide-based fluorometric assay; assay type: functional; conditions: HCT-116, 48 h, read-out: GI
Calu-1 [13] = assay: Cytotoxicity against Homo sapiens (human) Calu1 cells at 500 nM after 48 hr by propidium iodide-based fluorometric assay; assay type: functional; conditions: Calu-1, 48 h, read-out: GI
[14] = Cytotoxicity against Homo sapiens (human) H460 cells at 500 nM after 48 hr by propidium iodide-based fluorometric assay; assay type: functional; conditions: NCI-H460, 48 h, read-out: GI
PANC-1 [15] = assay: Cytotoxicity against Homo sapiens (human) PANC1 cells at 500 nM after 48 hr by propidium iodide-based fluorometric assay; assay type: functional; conditions: PANC-1, 48 h, read-out: GI
[16] = Antioxidant activity assessed as reduction of potassium ferricynide at 1 uM after 10 min by spectrophotometric analysis; assay type: functional; design: scale not given: the % may be the effect or the level left
[17] = Antioxidant activity assessed as hydroxyl radical scavenging activity at 1 uM by spectrophotometric analysis; assay type: functional
[18] = system: Radical scavenging activity; assay: Antioxidant activity assessed as DPPH radical scavenging activity at 1 uM after 20 min by spectrophotometric analysis; assay type: functional
ACHN [19] = assay: Cytotoxicity against Homo sapiens (human) ACHN cells at 10 uM after 48 hr by propidium iodide-based fluorometric assay; assay type: functional; conditions: read-out: GI
HCT-116 [20] = assay: Cytotoxicity against Homo sapiens (human) HCT116 cells at 10 uM after 48 hr by propidium iodide-based fluorometric assay; assay type: functional; conditions: HCT-116, 48 h, read-out: GI
Calu-1 [21] = assay: Cytotoxicity against Homo sapiens (human) Calu1 cells at 10 uM after 48 hr by propidium iodide-based fluorometric assay; assay type: functional; conditions: Calu-1, 48 h, read-out: GI
[22] = Cytotoxicity against Homo sapiens (human) H460 cells at 10 uM after 48 hr by propidium iodide-based fluorometric assay; assay type: functional; conditions: NCI-H460, 48 h, read-out: GI
PANC-1 [23] = assay: Cytotoxicity against Homo sapiens (human) PANC1 cells at 10 uM after 48 hr by propidium iodide-based fluorometric assay; assay type: functional; conditions: PANC-1, 48 h, read-out: GI
[24] = target: T1, Beta-glucuronidase (Homo sapiens) (UniProt P08236); assay: Inhibition of beta-glucuronidase (unknown origin) using p-nitrophenyl-beta-D-glucopyranosiduronic acid as substrate at 1 uM after 30 min by spectrophotometric analysis
T1 sequence (whole entry): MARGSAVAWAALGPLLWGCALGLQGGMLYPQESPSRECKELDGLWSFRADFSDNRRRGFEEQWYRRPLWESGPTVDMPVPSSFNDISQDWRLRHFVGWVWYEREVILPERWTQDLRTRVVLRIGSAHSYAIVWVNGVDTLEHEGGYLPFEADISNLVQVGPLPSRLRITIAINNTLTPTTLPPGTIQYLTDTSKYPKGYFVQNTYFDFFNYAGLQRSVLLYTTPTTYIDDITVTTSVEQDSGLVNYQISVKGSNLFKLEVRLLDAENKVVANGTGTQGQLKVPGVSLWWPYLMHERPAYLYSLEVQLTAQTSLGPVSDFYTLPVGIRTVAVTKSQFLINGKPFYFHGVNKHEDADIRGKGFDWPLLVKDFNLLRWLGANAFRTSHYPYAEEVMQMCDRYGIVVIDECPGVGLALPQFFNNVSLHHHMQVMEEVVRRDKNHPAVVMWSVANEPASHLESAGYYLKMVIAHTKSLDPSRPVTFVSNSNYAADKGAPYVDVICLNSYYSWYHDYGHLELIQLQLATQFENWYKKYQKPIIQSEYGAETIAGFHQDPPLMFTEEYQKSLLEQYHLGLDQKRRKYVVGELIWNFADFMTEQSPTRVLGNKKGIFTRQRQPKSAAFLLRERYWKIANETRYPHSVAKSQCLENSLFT

Trypsin (Homo sapiens) = Trypsin (Homo sapiens) (UniProt P07477+P07478+P35030); assay: Inhibition of trypsin (unknown origin) using bovine serum albumin as substrate at 1 uM incubated for 20 min prior to substrate addition measured after 25 min by Lowry method; assay type: protein assay
[25] = target: T2, Prostaglandin G/H synthase 2 (Ovis aries) (UniProt P79208); assay: Inhibition of Ovis aries (sheep) COX2 at 1 uM after 5 min by colorimetric analysis
T2 sequence (whole entry): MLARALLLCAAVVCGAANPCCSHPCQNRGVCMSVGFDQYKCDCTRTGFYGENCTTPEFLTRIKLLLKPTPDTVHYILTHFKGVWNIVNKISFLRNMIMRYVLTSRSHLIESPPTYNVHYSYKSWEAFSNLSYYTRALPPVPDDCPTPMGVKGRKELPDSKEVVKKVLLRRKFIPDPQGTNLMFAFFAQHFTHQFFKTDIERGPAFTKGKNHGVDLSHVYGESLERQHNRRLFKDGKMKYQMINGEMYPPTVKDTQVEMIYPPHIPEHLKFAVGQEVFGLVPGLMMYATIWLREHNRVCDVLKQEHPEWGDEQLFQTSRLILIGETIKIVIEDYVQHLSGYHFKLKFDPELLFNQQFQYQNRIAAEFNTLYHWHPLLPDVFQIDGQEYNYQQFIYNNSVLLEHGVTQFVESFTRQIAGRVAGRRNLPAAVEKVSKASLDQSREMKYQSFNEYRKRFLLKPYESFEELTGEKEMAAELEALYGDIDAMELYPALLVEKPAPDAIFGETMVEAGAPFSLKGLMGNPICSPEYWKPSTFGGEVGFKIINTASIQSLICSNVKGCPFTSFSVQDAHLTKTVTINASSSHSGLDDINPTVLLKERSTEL

[26] = Cytotoxicity against Homo sapiens (human) […] cells at 10 uM; assay type: cell-based
THP-1 [27] = assay: Anti-inflammatory activity in Homo sapiens (human) THP1 cells assessed as inhibition of LPS-induced IL6 production at 10 uM incubated for 30 min prior to LPS-challenge measured after 24 hr by ELISA; assay type: functional
THP-1 [28] = assay: Anti-inflammatory activity in Homo sapiens (human) THP1 cells assessed as inhibition of LPS-induced TNFalpha production at 10 uM incubated for 30 min prior to LPS-challenge measured after 24 hr by ELISA; assay type: functional
[29] = target: T3, Prostaglandin G/H synthase 1 (Ovis aries) (UniProt P05979); conditions: at 1 µM;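 note: colorimetric read-out, measured after 5 min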
T3 sequence (whole entry): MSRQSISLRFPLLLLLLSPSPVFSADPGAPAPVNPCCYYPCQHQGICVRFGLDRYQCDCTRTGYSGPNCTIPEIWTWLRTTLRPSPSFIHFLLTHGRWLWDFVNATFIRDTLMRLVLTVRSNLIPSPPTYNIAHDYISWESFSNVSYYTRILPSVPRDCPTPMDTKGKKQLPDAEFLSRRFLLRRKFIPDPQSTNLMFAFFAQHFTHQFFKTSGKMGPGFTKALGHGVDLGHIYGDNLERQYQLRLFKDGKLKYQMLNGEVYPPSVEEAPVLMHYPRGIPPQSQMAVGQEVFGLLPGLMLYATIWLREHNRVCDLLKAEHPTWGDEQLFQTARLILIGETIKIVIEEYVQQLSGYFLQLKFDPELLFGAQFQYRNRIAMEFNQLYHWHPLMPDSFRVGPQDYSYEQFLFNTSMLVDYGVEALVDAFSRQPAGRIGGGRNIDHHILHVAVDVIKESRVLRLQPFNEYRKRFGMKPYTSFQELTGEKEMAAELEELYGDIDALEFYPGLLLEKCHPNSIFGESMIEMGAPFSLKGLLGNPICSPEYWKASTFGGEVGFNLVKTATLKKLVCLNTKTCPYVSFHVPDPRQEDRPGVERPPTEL
Description: Inhibition of Ovis aries (sheep) COX1 at 1 uM after 5 min by colorimetric analysis

## C[C@@H]1C[C@H]2[C@@H]3CCC4=CC(=O)C=C[C@]4(C)[C@@]3(F)[C@@H](O)C[C@]2(C)[C@@]1(O)C(=O)CO [DEXAMETHASONE]
[1]
  Activity: 0%
THP-1 [2]
  inhibition at 1 µM: 94%
THP-1 [3]
  inhibition at 1 µM: 72%

## O=C1O[C@H]([C@@H](O)CO)C(O)=C1O
[4]
  Activity: 78.9%
[5]
  Activity: 45.9%

## CN1CC[C@H](c2c(O)cc(O)c3c(=O)cc(-c4ccccc4Cl)oc23)[C@H](O)C1 [ALVOCIDIB]
HCT-116 [6]
  inhibition of growth at 0.7 µM: 83%
ACHN [7]
  inhibition of growth at 0.7 µM: 73%
Calu-1 [8]
  inhibition of growth at 0.7 µM: 82%
[9]
  inhibition of growth at 0.7 µM: 73%
PANC-1 [10]
  inhibition of growth at 0.7 µM: 68%

## Nc1ccn([C@@H]2O[C@H](CO)[C@@H](O)C2(F)F)c(=O)n1 [GEMCITABINE]
ACHN [11]
  inhibition of growth at 0.5 µM: 84%
HCT-116 [12]
  inhibition of growth at 0.5 µM: 86%
Calu-1 [13]
  inhibition of growth at 0.5 µM: 87%
[14]
  inhibition of growth at 0.5 µM: 79%
PANC-1 [15]
  inhibition of growth at 0.5 µM: 78%

## COc1cc(OC)c(/C=C/C(=O)c2cccc(NC(=O)c3cccc(Br)c3)c2)c(OC)c1Br
[16]
  Activity: 39.7%
[17]
  Activity: 23.6%
[18]
  Activity: 42.6%
ACHN [19]
  inhibition of growth at 10 µM: 6%
HCT-116 [20]
  inhibition of growth at 10 µM: 0%
Calu-1 [21]
  inhibition of growth at 10 µM: 0%
[22]
  inhibition of growth at 10 µM: 6%
PANC-1 [23]
  inhibition of growth at 10 µM: 0%
[24]
  inhibition: 84.7%
Trypsin (Homo sapiens)
  inhibition: 66.5%
[25]
  inhibition: 88.4%
[26]
  Activity: 31%
THP-1 [27]
  inhibition at 10 µM: 75%
THP-1 [28]
  inhibition at 10 µM: 4%
[29]
  inhibition: 41.7%

## COc1cc(OC)c(/C=C/C(=O)c2cccc(NC(=O)c3cccc(F)c3)c2)c(OC)c1Br
[16]
  Activity: 39.9%
[17]
  Activity: 32.2%
[18]
  Activity: 43.3%
ACHN [19]
  inhibition of growth at 10 µM: 33%
HCT-116 [20]
  inhibition of growth at 10 µM: 26%
Calu-1 [21]
  inhibition of growth at 10 µM: 31%
[22]
  inhibition of growth at 10 µM: 33%
PANC-1 [23]
  inhibition of growth at 10 µM: 32%
[24]
  inhibition: 72.9%
Trypsin (Homo sapiens)
  inhibition: 63.5%
[25]
  inhibition: 82.5%
[26]
  Activity: 51%
THP-1 [27]
  inhibition at 10 µM: 93%
THP-1 [28]
  inhibition at 10 µM: 78%
[29]
  inhibition: 59.8%

## COc1cc(OC)c(/C=C/C(=O)c2cccc(NC(=O)c3ccccc3)c2)c(OC)c1Br
[16]
  Activity: 46.6%
[17]
  Activity: 54.1%
[18]
  Activity: 49.4%
ACHN [19]
  inhibition of growth at 10 µM: 21%
HCT-116 [20]
  inhibition of growth at 10 µM: 0%
Calu-1 [21]
  inhibition of growth at 10 µM: 6%
[22]
  inhibition of growth at 10 µM: 14%
PANC-1 [23]
  inhibition of growth at 10 µM: 10%
[24]
  inhibition: 49.6%
Trypsin (Homo sapiens)
  inhibition: 58.1%
[25]
  inhibition: 65.7%
[26]
  Activity: 65%
THP-1 [27]
  inhibition at 10 µM: 98%
THP-1 [28]
  inhibition at 10 µM: 91%
[29]
  inhibition: 51.9%

From ChEMBL document CHEMBL3046347, “Synthesis and biological evaluation of novel curcumin analogues as anti-inflammatory, anti-cancer and anti-oxidant agents” (Med Chem Res, 2012)
